# Tests used:
# [1] = test system: HMC-1.2 cell line (imatinib-resistant cell line, having c-kit G560V/D816V mutation); assay: Growth inhibition of mastocytosis cell line HMC-1.2; type: cell-based; conditions: HMC-1.2, 72 hours
# Method: [Worded in the source for another cell line; this cell line is reported under the same test.] Specifically, 100 μl of a Ba/F3 cell line with a c-kit D816V mutation (FIG. 1) was added to each well of a 96-well plate at a concentration of 10,000 cells/100 μl. […] As the control compounds, imatinib and sunitinib which are c-kit inhibitors were used.
# [2] = test system: neoplastic mast cells exhibiting wild type (wt) KIT or the rarely occurring F522C-mutated variant of KIT; conditions: literature, background; cited from earlier work
# [3] = test system: HMC-1.2 cells subcutaneous tumor; assay: Tumor growth inhibition in mastocytosis mouse model with HMC-1.2 cell line; type: in vivo, NOD SCID female mice
# Method: (§1) As mice, 6-8-week-old NOD SCID female mice (18 to 22 g) (GemPharmatech Co., Ltd.) were prepared. Mice were acclimatized for 7 days before use in the experiment, and mice with abnormal health were excluded from the experiment. Mice were bred in a cage (300×180×150 mm) at a 22±3° C. and a relative humidity of 40% to 70% with a 12-hr light/12-hr dark cycle. Mice were allowed access to sterilized dry granular food (Beijing Keaoxieli Feed Co., Ltd., Beijing, China) and water ad libitum for the entire experimental period except for the period specified in the protocol.
# 50 ml of HMC-1.2 cells suspension-cultured in a 75T flask were placed in a conical tube and centrifuged at 1,200 rpm for 2 minutes, centrifuged with DPBS (Dulbecco's Phosphate-Buffered Saline, Welgene) at 1,200 rpm for 2 minutes, washed, and then suspended in RPMI1640 (Welgene) without antibiotics and fetal bovine serum (FBS).
# Thereafter, when the average tumor volume reached 150 to 200 mm^3, 4 mice were assigned to each group so that the average tumor volume at each group and treatment time was the same between the groups.
# In addition, the width and length of the tumor were measured using a caliper at 3-day intervals, and the tumor volume was calculated using the following equation.
# (V: tumor volume, W: tumor width, and L: tumor length)
# In addition, the mice were sacrificed 3 weeks after the start of oral administration of each drug and the tumor weight was measured using a digital scale. For each data, one-way ANOVA was used to test the significance of each group.
# [4] = test system: inflammatory response caused by mastocytosis (HMC-1.2 mouse model); assay: Spleen/body weight ratio in mastocytosis mouse model (inflammatory response); type: in vivo, NOD SCID female mice
# Method: as §1
# 50 ml of HMC-1.2 cells suspension-cultured in a 75T flask were placed in a conical tube and centrifuged at 1,200 rpm for 2 minutes, centrifuged with DPBS (Dulbecco's Phosphate-Buffered Saline, Welgene) at 1,200 rpm for 2 minutes, washed, and then suspended in RPMI1640 (Welgene) without antibiotics and fetal bovine serum (FBS). Then, the cells were stained with trypan blue, counted with a hemocytometer, and then HMC-1.2 cells (1×10^6) in a mixture of 0.1 ml L-15 and Matrigel (BD, cat. No. 356234) (1:1) were subcutaneously injected into the right flanks of mice anesthetized by intraperitoneal administration of Avertin (250 mg/kg), thus inducing tumors.
# Thereafter, when the average tumor volume reached 150 to 200 mm^3, 4 mice were assigned to each group so that the average tumor volume at each group and treatment time was the same between the groups. Then, each of imatinib at a dose of 90 mg/kg, sunitinib at doses of 20 and 40 mg/kg, and PHI-101 at doses of 7, 20, 40 and 80 mg/kg was administered orally to the mice once daily for 3 weeks. For oral administration, each compound was dissolved in 5% 1-methyl-2-pyrrolidone and then completely mixed in 15% Kolliphor, 30% PEG E400 HS15 and 50% 0.05M citric acid.
# Specifically, 3 weeks after administering each drug to the mastocytosis mouse model of Example 3-1, the mice were sacrificed, the body weight and spleen weight were measured using a digital scale, and then the spleen/body weight ratio was calculated.
# [5] = test system: neoplastic mast cells with the c-KIT mutation D816V; conditions: literature, background; cited from earlier work
# [6] = 90 mg/kg oral once daily for 3 weeks
# [7] = 20 mg/kg oral once daily for 3 weeks
# [8] = 40 mg/kg oral once daily for 3 weeks
compound,measurement,setting,value
Cc1nc(Nc2ncc(C(=O)Nc3c(C)cccc3Cl)s2)cc(N2CCN(CCO)CC2)n1 [Dasatinib],GI50,[1],312 nM
"Cc1ccc(NC(=O)c2ccc(CN3CCN(C)CC3)cc2)cc1Nc1nccc(-c2cccnc2)n1 [Imatinib, reference compound]",growth of neoplastic mast cells with wt KIT or F522C KIT,[2],counteract the growth
same,Tumor growth inhibition (TGI) (%) Tumor weight,[3]; [6],7.8%
same,Spleen/body weight ratio % of control,[4]; [6],97.7%
same,Spleen/body weight ratio Inhibition (%),[4]; [6],2.3%
same,growth of neoplastic mast cells with c-KIT D816V,[5],failed to inhibit the growth
same,GI50,[1],17100 nM
Cc1ccc(C(=O)Nc2ccc(CN3CCN(C)CC3)c(C(F)(F)F)c2)cc1C#Cc1cnc2cccnn12 [Ponatinib],GI50,[1],194 nM
"CCN(CC)CCNC(=O)c1c(C)[nH]c(/C=C2\C(=O)Nc3ccc(F)cc32)c1C [Sunitinib, reference compound]",Tumor growth inhibition (TGI) (%) Timor volume,[3]; [7],37.3%
same,Tumor growth inhibition (TGI) (%) Tumor weight,[3]; [7],49.5%
same,Tumor growth inhibition (TGI) (%) Timor volume,[3]; [8],46.2%
same,Tumor growth inhibition (TGI) (%) Tumor weight,[3]; [8],47.9%
same,Spleen/body weight ratio % of control,[4]; [7],104.3%
same,Spleen/body weight ratio Inhibition (%),[4]; [7],−4.3%
same,Spleen/body weight ratio % of control,[4]; [8],102.7%
same,Spleen/body weight ratio Inhibition (%),[4]; [8],−2.7%
same,GI50,[1],1300 nM

# From patent US20230263792A1, “USE OF 2,3,5-SUBSTITUTED THIOPHENE COMPOUND FOR PREVENTING, ALLEVIATION, OR TREATING MASTOCYTOSIS” (PHAROS IBIO CO., LTD, priority 2020, published 2023)
